# Results reported in patent publication US20260174790A1, “HUMAN AND MURINE OPRM1 PROMOTERS AND USES THEREOF” (The Trustees of the University of Pennsylvania, priority 2022, published 2026).
# Legend:
# spinal MOR+ neurons = assay: Von Frey filament Up-Down test with chemogenetic inhibition; type: in vivo, mouse; conditions: intrathecal DCZ 10 pg, mMORp-hM4Di-mCherry injected mice; von Frey and hot plate
# Description: For spinal cord chemogenetic studies, mice were injected intraparenchymally at four sites (bilaterally at L4 and L5) with 400 nL of AAV1-mMORp-hM4Di-mCherry (titer: 3.1×10^12 gc/mL) to drive transduction of inhibitory DREADD receptor in spinal cord neurons. Using a modified, minimally invasive method for microinjection in the mouse spinal dorsal horn without laminectomy^91, mice were first anesthetized with isoflurane gas in oxygen (initial dose=4%, maintenance dose=2%), the back shaved and wiped with alcohol and povidone-iodine followed by a 2 cm incision made through the skin, and then placed within a modified Kopf stereotaxic frame to stabilize the T13 and L3 spinal column vertebrae. Next, the spinal column was slightly arched upwards by ˜30°, 0.2 mg/kg lidocaine was administered to the overlying muscle, which was then was gently dissected to expose the interspace above and below the T13 vertebrae, allowing direct access to the L3-5 spinal cord dorsal surface. […]
# Von Frey filament touch test: To evaluate mechanical reflexive sensitivity, we used a logarithmically increasing set of 8 von Frey filaments (Stoelting), ranging in gram force from 0.07 to 6.0 grams. […] Using the Up-Down statistical method^100, the 50% withdrawal mechanical threshold scores were calculated for each mouse and then averaged across the experimental groups. […]
# MOR+ CeA neurons [1] = assay: In vivo fiber photometry, hot water hind paw stimulation; parameters: species or system mouse; conditions: mMORp-GCaMP6f mice, morphine i.p. 10 mg/kg 30 minutes prior to hot water hind paw stimulations
# Description: For fiber photometry studies, mice were injected with ˜300 nL of recombinant AAV1-mMORp-GCaMP6f (titer: 3.69×10^12 gc/mL) in the right CeA, followed immediately by the placement of a fiberoptic implant (˜4.7 mm fiber, Doric Lenses) approximately 0.1-0.2 mm above the DV coordinate of the injection site (same as listed above). After setting the fiberoptic in position, MetaBond (Parkel1) and Jet Set dental acrylic (Lang Dental) were applied to the skull of a mouse to rapidly and firmly fix the fiberoptic in place. In brief, after exposure of the skull, the bone was scored with a scalpel blade to provide grooves for the MetaBond to settle into and provide better adhesion. After lowering the fiberoptic into the craniotomy hole, the skull was cleaned with saline and then fully air dried. […] All mice were monitored for up to two days following surgical procedures to ensure the animals' proper recovery.
# Hot water hindpaw stimulation test: To evaluate responses to acute, noxious thermal stimulations during fiber photometry testing, we used a hot water hind paw application protocol described previously^102. […] Animals were continuously recorded by a web camera positioned to face the front of the cylinder in which the animal was housed, and all relevant behaviors time-locked to calcium mediated events were scored post-hoc using the video footage. […]
# MOR+ CeA neurons [2] = assay: In vivo fiber photometry, chronic morphine drinking and naloxone precipitated withdrawal; parameters: species or system mouse; conditions: mMORp-GCaMP6f mice, forced morphine drinking (0.3 mg/ml 3 days, 0.5 mg/ml 4 days), naloxone i.p. 3 mg/kg, 20-minute window
# Description: For fiber photometry studies, mice were injected with ˜300 nL of recombinant AAV1-mMORp-GCaMP6f (titer: 3.69×10^12 gc/mL) in the right CeA, followed immediately by the placement of a fiberoptic implant (˜4.7 mm fiber, Doric Lenses) approximately 0.1-0.2 mm above the DV coordinate of the injection site (same as listed above). After setting the fiberoptic in position, MetaBond (Parkel1) and Jet Set dental acrylic (Lang Dental) were applied to the skull of a mouse to rapidly and firmly fix the fiberoptic in place. In brief, after exposure of the skull, the bone was scored with a scalpel blade to provide grooves for the MetaBond to settle into and provide better adhesion. […] All mice were monitored for up to two days following surgical procedures to ensure the animals' proper recovery.
# In Vivo Fiber Photometry Recordings and Analysis: Optical recordings of GCaMP6f fluorescence were acquired using an RZ10× fiber photometry detection system (Tucker-Davis Technologies), consisting of a processor with Synapse software (Tucker-Davis Technologies), and optical components (Doric Lenses and ThorLabs). Excitation wavelengths generated by LEDs (460 nm blue light and 405 nm violet light) were relayed through a filtered fluorescence minicube at spectral bandwidths of 460-495 and 405 nm to a pre-bleached mono fiberoptic patch cord connected to the implant on top of each animal's head. […]
Compound,analgesic effects on activation of mMORp-hM4Di in spinal cord neurons (spinal MOR+ neurons),calcium mediated event peak z-score (MOR+ CeA neurons [1]),average post naloxone calcium events (MOR+ CeA neurons [2])
"CN1CCN(C2=Nc3ccccc3Nc3ccccc32)CC1 [DCZ, deschloroclozapine]",analgesic effects similar to CNO treatment,,
"CN1CC[C@]23c4c5ccc(O)c4O[C@H]2[C@@H](O)C=C[C@H]3[C@H]1C5.O=S(=O)(O)O [morphine, morphine sulfate]",,7.6,91
